Calls of active or inactive are those of the source. The rule behind the calls is not given here.
Legend:
HeLa = test: Antiproliferative activity against human HeLa cells assessed as cell growth inhibition incubated for 48 hrs by MTT assay; type: functional, cell-based
[1] = Metabolic stability in mouse liver microsomes assessed as half life incubated for 10 mins in presence of NADPH by LC-MS/MS analysis; type: ADME, Microsome
A549 [2] = test: Induction of apoptosis in human A549 cells at 20 uM incubated for 24 hrs by Annexin V-FITC/PI staining based flow cytometry; type: functional
A549 [3] = test: Induction of apoptosis in human A549 cells at 10 uM incubated for 24 hrs by Annexin V-FITC/PI staining based flow cytometry; type: functional
BXPC-3 = test: Antiproliferative activity against human BXPC-3 cells assessed as cell growth inhibition incubated for 48 hrs by MTT assay; type: functional, cell-based; details: BXPC-3, 48 h
[4] = biological target: Tyrosine-protein kinase JAK3 (Homo sapiens, UniProt P52333)
Tyrosine-protein kinase JAK3, sequence (P52333 whole entry): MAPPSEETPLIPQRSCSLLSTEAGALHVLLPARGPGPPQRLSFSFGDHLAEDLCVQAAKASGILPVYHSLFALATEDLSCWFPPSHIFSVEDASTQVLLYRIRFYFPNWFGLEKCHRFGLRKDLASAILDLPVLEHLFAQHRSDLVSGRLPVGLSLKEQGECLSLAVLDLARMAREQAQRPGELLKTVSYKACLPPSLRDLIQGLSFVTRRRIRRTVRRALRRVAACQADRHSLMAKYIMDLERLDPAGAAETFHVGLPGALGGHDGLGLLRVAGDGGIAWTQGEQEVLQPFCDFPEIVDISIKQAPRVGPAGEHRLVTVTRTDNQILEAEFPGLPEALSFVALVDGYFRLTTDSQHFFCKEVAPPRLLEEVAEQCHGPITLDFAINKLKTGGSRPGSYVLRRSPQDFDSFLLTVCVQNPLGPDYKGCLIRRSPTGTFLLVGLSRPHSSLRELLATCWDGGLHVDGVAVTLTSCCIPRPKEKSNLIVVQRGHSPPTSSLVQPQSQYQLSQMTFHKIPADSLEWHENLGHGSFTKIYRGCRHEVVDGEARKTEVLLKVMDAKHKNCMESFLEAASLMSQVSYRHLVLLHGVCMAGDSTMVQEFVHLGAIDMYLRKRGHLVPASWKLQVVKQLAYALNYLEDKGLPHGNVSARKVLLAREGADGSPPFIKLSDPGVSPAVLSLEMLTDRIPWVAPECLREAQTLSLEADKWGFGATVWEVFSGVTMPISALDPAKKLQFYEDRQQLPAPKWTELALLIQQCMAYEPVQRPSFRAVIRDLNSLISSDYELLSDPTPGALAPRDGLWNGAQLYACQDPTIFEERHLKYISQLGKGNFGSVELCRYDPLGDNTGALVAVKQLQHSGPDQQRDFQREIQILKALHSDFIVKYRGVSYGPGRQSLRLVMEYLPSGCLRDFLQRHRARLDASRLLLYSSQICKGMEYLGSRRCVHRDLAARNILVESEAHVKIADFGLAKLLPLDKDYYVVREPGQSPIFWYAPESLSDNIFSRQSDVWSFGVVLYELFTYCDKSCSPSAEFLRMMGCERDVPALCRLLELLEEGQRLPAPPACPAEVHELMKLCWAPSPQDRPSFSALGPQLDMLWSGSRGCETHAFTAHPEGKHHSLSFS
Description: Inhibition of JAK3 (unknown origin) using Poly-(Glu,Tyr 4:1) peptide as substrate in presence of ATP by ADP-Glo reagent based assay

[5] = Cytotoxicity against human ARPE-19 cells assessed as cell growth inhibition incubated for 48 hrs by MTT assay; type: toxicity, cell-based
A2780/Taxol = test: Antiproliferative activity against human A2780T cells assessed as cell growth inhibition incubated for 48 hrs by MTT assay; type: functional, cell-based
[6] = Resistance index, ratio of IC50 for antiproliferative activity against human HCT-8/VCR cells to IC50 for antiproliferative activity against human HCT-8 cells; type: functional
[7] = Antiproliferative activity against Chinese hamster CHO-K1 cells assessed as cell growth inhibition incubated for 48 hrs by MTT assay; type: toxicity, cell-based, Cricetulus griseus
[8] = AUC (0 to t) in CD-1 mouse at 1 mg/kg,iv measured upto 24 hrs by HPLC-MS/MS analysis; type: ADME, organism-based; design: dose 1 mg/kg, time < 24 hrs, route iv; details: in vivo
[9] = MRT (0 to t) in CD-1 mouse at 1 mg/kg,iv measured upto 24 hrs by HPLC-MS/MS analysis; type: ADME, organism-based; details: in vivo
[10] = MRT (0 to infinity) in CD-1 mouse at 1 mg/kg,iv measured upto 24 hrs by HPLC-MS/MS analysis; type: ADME, organism-based; details: in vivo
[11] = AUC (0 to infinity) in CD-1 mouse at 10 mg/kg,ip measured upto 24 hrs by HPLC-MS/MS analysis; type: ADME, organism-based; design: time < 24 hrs, dose 10 mg/kg, route ip; details: in vivo
[12] = MRT (0 to infinity) in CD-1 mouse at 10 mg/kg,ip measured upto 24 hrs by HPLC-MS/MS analysis; type: ADME, organism-based; details: in vivo
[13] = Tmax in CD-1 mouse at 10 mg/kg,ip measured upto 24 hrs by HPLC-MS/MS analysis; type: ADME, organism-based; details: in vivo
[14] = Oral bioavailability in CD-1 mouse at 10 mg/kg,ip measured upto 24 hrs by HPLC-MS/MS analysis; type: ADME, organism-based; details: in vivo
Tubulin (Sus scrofa) = Tubulin (Sus scrofa) (UniProt P02554+P02550); test: Inhibition of porcine brain tubulin polymerization at 0.625 to 2.5 uM measured for 30 mins in presence of GTP by microplate reader assay; type: tissue-based; details: dose 0.625-2.5 µM
Tubulin (Sus scrofa), sequence (P02550 whole entry, looked up): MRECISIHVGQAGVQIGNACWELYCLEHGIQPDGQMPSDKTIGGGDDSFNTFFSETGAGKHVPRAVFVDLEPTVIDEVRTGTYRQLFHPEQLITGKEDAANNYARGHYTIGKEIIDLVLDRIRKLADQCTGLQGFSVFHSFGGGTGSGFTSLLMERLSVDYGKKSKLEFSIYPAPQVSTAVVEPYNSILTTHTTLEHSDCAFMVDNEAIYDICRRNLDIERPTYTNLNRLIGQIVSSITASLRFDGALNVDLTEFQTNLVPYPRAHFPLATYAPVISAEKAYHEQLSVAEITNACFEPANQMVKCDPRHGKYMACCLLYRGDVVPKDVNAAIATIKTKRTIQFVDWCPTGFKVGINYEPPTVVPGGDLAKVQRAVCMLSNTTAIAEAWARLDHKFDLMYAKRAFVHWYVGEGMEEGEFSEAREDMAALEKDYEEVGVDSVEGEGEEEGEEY
Tubulin (Sus scrofa), sequence (P02554 whole entry, looked up): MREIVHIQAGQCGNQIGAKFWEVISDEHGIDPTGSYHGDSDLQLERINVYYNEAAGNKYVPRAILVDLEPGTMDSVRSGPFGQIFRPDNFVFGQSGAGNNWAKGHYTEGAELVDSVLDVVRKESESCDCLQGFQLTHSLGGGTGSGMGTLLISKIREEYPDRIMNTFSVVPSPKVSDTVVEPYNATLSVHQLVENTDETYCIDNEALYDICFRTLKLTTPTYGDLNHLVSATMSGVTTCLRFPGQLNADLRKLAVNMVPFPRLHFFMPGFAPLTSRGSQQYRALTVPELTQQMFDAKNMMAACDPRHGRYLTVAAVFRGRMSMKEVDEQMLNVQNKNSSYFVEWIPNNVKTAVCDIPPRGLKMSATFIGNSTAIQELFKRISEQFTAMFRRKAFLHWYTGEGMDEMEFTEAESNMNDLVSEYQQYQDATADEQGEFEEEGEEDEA

Tubulin (Homo sapiens) = Tubulin (Homo sapiens) (UniProt P68371+Q9H4B7+P0DPH7+P68366+Q13509+Q71U36+P04350+Q3ZCM7+P07437+P68363+Q9BQE3+Q6PEY2+Q13885+Q9BVA1+Q9BUF5); test: Disruption of microtubule assembly in human A549 cells at 1 uM incubated for 6 hrs by Hoechst33342 staining based immunofluorescence analysis; type: cell-based
A549 [15] = test: Induction of cell cycle arrest in human A549 cells assessed as accumulation of cells at G2/M phase at 10 nM incubated for 24 hrs by PI/RNase staining based flow cytometry analysis; type: functional
A549 [16] = test: Induction of cell cycle arrest in human A549 cells assessed as accumulation of cells at G2/M phase at 20 nM incubated for 24 hrs by PI/RNase staining based flow cytometry analysis; type: functional
A549 [17] = test: Induction of apoptosis in human A549 cells assessed as viable cells at 5 nM incubated for 24 hrs by Annexin V-FITC/PI staining based flow cytometry (reference value: 93 %); type: functional; details: read-out: Activity
A549 [18] = test: Induction of apoptosis in human A549 cells assessed as viable cells at 10 nM incubated for 24 hrs by Annexin V-FITC/PI staining based flow cytometry (reference value: 93 %); type: functional; details: read-out: Activity
A549 [19] = test: Induction of apoptosis in human A549 cells assessed as viable cells at 20 nM incubated for 24 hrs by Annexin V-FITC/PI staining based flow cytometry (reference value: 93 %); type: functional; details: read-out: Activity
A549 [20] = test: Induction of apoptosis in human A549 cells assessed as early apoptotic cells at 5 nM incubated for 24 hrs by Annexin V-FITC/PI staining based flow cytometry (reference value: 4.61 %); type: functional
A549 [21] = test: Induction of apoptosis in human A549 cells assessed as early apoptotic cells at 10 nM incubated for 24 hrs by Annexin V-FITC/PI staining based flow cytometry (reference value: 4.61 %); type: functional
A549 [22] = test: Induction of apoptosis in human A549 cells assessed as early apoptotic cells at 20 nM incubated for 24 hrs by Annexin V-FITC/PI staining based flow cytometry (reference value: 4.61 %); type: functional
A549 [23] = test: Induction of apoptosis in human A549 cells assessed as late apoptotic cells at 10 nM incubated for 24 hrs by Annexin V-FITC/PI staining based flow cytometry (reference value: 1.72 %); type: functional
A549 [24] = test: Induction of apoptosis in human A549 cells assessed as late apoptotic cells at 20 nM incubated for 24 hrs by Annexin V-FITC/PI staining based flow cytometry (reference value: 1.72 %); type: functional
A549 [25] = test: Induction of mitochondrial membrane potential loss in human A549 cells by measuring red fluorescence at 5 nM incubated for 16 hrs by JC-1 staining based flow cytometry analysis (reference value: 99.3 %); type: functional
A549 [26] = test: Induction of mitochondrial membrane potential loss in human A549 cells by measuring green fluorescence at 20 nM incubated for 16 hrs by JC-1 staining based flow cytometry analysis (reference value: 0.7 %); type: functional
A549 [27] = test: Antitumor activity against human A549 cells xenografted in Balb/c mouse assessed as increase in tumor necrotic cells at 50 mg/kg,ip administration measured after 31 days by Hematoxylin-eosin staining based microscopy; type: functional, organism-based; details: time 31.0 day
[28] = Toxicity in Balb/c mouse xenografted with human A549 cells assessed as effect on spleen morphology at 50 mg/kg,ip administration measured after 31 days by Hematoxylin-eosin staining based microscopy; type: organism-based; details: in vivo, 744 h, time 31 day
[29] = Toxicity in Balb/c mouse xenografted with human A549 cells assessed as effect on heart morphology at 50 mg/kg,ip administration measured after 31 days by Hematoxylin-eosin staining based microscopy; type: organism-based; details: in vivo, 744 h, time 31 day
[30] = Toxicity in Balb/c mouse xenografted with human A549 cells assessed as effect on kidney morphology at 50 mg/kg,ip administration measured after 31 days by Hematoxylin-eosin staining based microscopy; type: organism-based; details: in vivo, 744 h, time 31 day
[31] = Acute toxicity in C57BL/6 mouse assessed as maximum tolerated dose administered intravenously for 5 consecutive days; details: in vivo, route iv
MCF7 = test: cells; details: Homo sapiens, MCF7, 48 h
Description: Antiproliferative activity against human MCF7 cells assessed as cell growth inhibition incubated for 48 hrs by MTT assay

NCI/ADR-RES = test: cells; details: Homo sapiens, 48 h
Description: Antiproliferative activity against human MCF7ADR cells assessed as cell growth inhibition incubated for 48 hrs by MTT assay

COc1cc(-c2nccc3nc(Nc4cccc5[nH]ccc45)nn23)cc(OC)c1OC showed an IC50 (HeLa) of 15 nM, a half-life [1] of 0.362 h and an Activity (A549 [2]) of 80.7%. The Activity (A549 [3]) was 40.6%, the IC50 (BXPC-3) was 11 nM and the IC50 [4] was 12200 nM. The IC50 at 48 h [5] was 5030 nM, the IC50 (A2780/Taxol) was 20 nM and the “Ratio IC50” value [6] was 1.4. For the same molecule, the IC50 at 48 h [7] was 130 nM, the AUC(0-t) at 24 h [8] was 364 ng·h/mL and the MRT last at 24 h [9] was 5.2 h. For the same molecule, the MRT inf [10] was 7.1 h, the AUC(0-inf) [11] was 580 ng·h/mL and the MRT inf [12] was 5.6 h. For the same molecule, the Tmax [13] was 0.5 h, the bioavailability [14] was 15.4% and the inhibition (Tubulin (Sus scrofa)) was “Active”. The Activity (Tubulin (Homo sapiens)) was “Active”, the Activity (A549 [15]) was 32.9% and the Activity (A549 [16]) was 91.5%. The viability at 0.005 µM (A549 [17]) was 90.5%, the viability at 0.01 µM (A549 [18]) was 55.4% and the viability at 0.02 µM (A549 [19]) was 9.34%. The Activity (A549 [20]) was 7.51%, the Activity (A549 [21]) was 27.3% and the Activity (A549 [22]) was 34.6%. It also gave an Activity (A549 [23]) of 14.7%, an Activity (A549 [24]) of 50.8% and an Activity (A549 [25]) of 89.1%. For the same molecule, the Activity (A549 [26]) was 44.1%, the Activity (A549 [27]) was “Active” and the Activity [28] was “Non-Toxic”. The Activity [29] was “Non-Toxic”, the Activity [30] was “Non-Toxic” and the MTD at 5 days [31] was 100 mg/kg. For the same molecule, the IC50 (MCF7) was 18 nM and the IC50 (NCI/ADR-RES) was 64 nM.

Reference: ChEMBL document CHEMBL5390242, “Design, Synthesis, and Antitumor Efficacy of Substituted 2-Amino[1,2,4]triazolopyrimidines and Related Heterocycles as Dual Inhibitors for Microtubule Polymerization and Janus Kinase 2” (J Med Chem, 2023)
